One assay has as its target T1, PDE4B1 (Homo sapiens, UniProt Q07343).
T1 construct: made in house; host or cells: SF21 insect cells (baculovirus; virus made in SF9 cells, pCR-Bac vector)
The assay is described as follows: Inhibition of PDE4 activity (PDE4B1, SPA assay). The conditions noted are these: recombinant PDE4B1, 0.5 μM cAMP; read-out: PDE4B1 Inhibitory values measured as -logIC50 (converted). Type of assay: biochemical. How it is done: Method for Measuring Inhibition of PDE4 Activity
The PDE4B1 (GB no. L20966) was a gift of Prof. M. Conti (Stanford University, USA). It was amplified from the original plasmid (pCMV5) via PCR with primers Rb18 (5′-[…]-3′) and Rb10 (5′-[…]-3′) and cloned into the pCR-Bac vector (Invitrogen, Groningen, NL).
The recombinant baculovirus was prepared by means of homologous recombination in SF9 insect cells. The expression plasmids were cotransfected with Baculo-Gold DNA (Pharmingen, Hamburg) using a standard protocol (Pharmingen, Hamburg). Wt virus-free recombinant virus supernatants were selected using plaque assay methods. After that, high-titre virus supernatants were prepared by amplifying 3 times. PDE4B1 was expressed in SF21 cells by infecting 2×10^6 cells/ml with an MOI (multiplicity of infection) between 1 and 10 in the serum-free SF900 medium (GIBCO Life Technologies, Karlsruhe, Germany) The cells were cultured at 28° C. for 48-72 hours, after which they were pelleted for 5-10 min at 1000×g and 4° C.
The SF21 insect cells were resuspended, at a concentration of approx. 10^7 cells/ml, in ice-cold (4° C.) homogenization buffer (20 mM Tris, pH 8.2, containing the following additions: 140 mM NaCl, 3.8 mM KCl, 1 mM EGTA, 1 mM MgCl2, 10 mM β-mercaptoethanol, 2 mM benzamidine, 0.4 mM Pefablock, 10 μM leupeptin, 10 μM pepstatin A, 5 μM trypsin inhibitor) and disrupted by ultrasonication. The homogenate was then centrifuged for 10 min at 1000×g and the supernatant was stored at −80° C. until subsequent use (see below). The protein content was determined by the Bradford method (BioRad, Munich) using BSA (Bovine serum albumin) as the standard.
PDE4B1 activities were measured in a 96-well platform using SPA (scintillation proximity assay) yttrium silicate beads (RPNQ1050 from GE Healthcare). In a first step the PDE activity operated hydrolysis of either [^3H] cAMP (substrate) into […]. In a second step substrate and product were distinguished following addition of SPA yttrium silicate beads. […] Close proximity of bound [^3H] […] The test volume was 100 μl and finally contained 20 mM Tris buffer (pH 7.4), 0.1 mg/ml of BSA, 5 mM Mg^2+, 0.5 μM cAMP (including about 50,000 cpm of [3H]cAMP) as substrate, 1 μl of the respective substance dilution in DMSO and sufficient recombinant PDE (1000×g supernatant, see above) to ensure that 10-20% of the cAMP was converted under the said experimental conditions. […] After a preincubation of 5 min at 37° C., the reaction was commenced by adding the substrate (cAMP) and the assays were incubated for a further 15 min. Reactions were terminated by adding SPA beads (50 μl). In agreement with the manufacturer's instructions, the SPA beads had previously been resuspended in water, but were then diluted 1:3 (v/v) in water. This diluted solution further contained 3 mM IBMX (isobutylmethylxanthine) to ensure a complete block of PDE activity. Once the beads were sedimented (>30 min), the MTP's (micro titerplate) were analyzed in commercially available […]. The corresponding IC50 values of the compounds for inhibition of PDE4B1 activity were determined from the concentration-effect curves by means of non-linear regression.
(§1) The numbers of the compounds correspond to the numbers of the examples.

Another assay addresses T2, human PDE5 (Homo sapiens, UniProt O76074).
T2 construct: from tissue; host or cells: human platelets from fresh donor blood (platelet lysate)
Description: Inhibition of PDE5 activity (platelet lysate, SPA assay). Type of assay: biochemical. The conditions noted are these: 0.5 μM cGMP, read-out: PDE5 Inhibitory values measured as -logIC50 (converted). How it is done:
Method for Measuring Inhibition of PDE5 Activity
As a source for human PDE5, platelets were used. For that purpose, 150 ml fresh blood from human donors anticoagulated with citrate [final concentration 0.3% (w/v)] was centrifuged at 200 g for 10 min to obtain the so-called platelet-rich-plasma (PRP) as a supernatant. […] After centrifugation (1,400 g, 10 min) the cell pellet was resuspended in 3 ml homogenization buffer (NaCl 140 mM, KCl 3.8 mM, EGTA (ethylene glycol tetraacetic acid) 1 mM, MgCl2 1 mM, Tris-HCl 20 mM, beta-mercaptoethanol 1 mM, pH 8.2) plus protease-inhibitor mix resulting in final concentrations of 0.5 mM Pefablock (Roche), 10 μM Leupeptin, 5 μM Trypsine inhibitor, 2 mM Benzamidin and 10 μM Pepstatin A. The suspension was sonicated and thereafter centrifuged for 15 min at 10,000 g. The resulting supernatant (platelet lysate) was used for enzymatic assays.
PDE5 activities were measured in a 96-well platform using SPA (scintillation proximity assay) yttrium silicate beads (RPNQ1050 from GE Healthcare). In a first step the PDE activity operated hydrolysis of either [^3H] cGMP (substrate) into [^3H] 5′GMP. In a second step substrate and product were distinguished following addition of SPA yttrium silicate beads. Indeed, in the presence of zinc sulphate the linear [^3H] […] Close proximity of bound [^3H] […] The test volume was 100 μl and contained 20 mM Tris buffer (pH 7.4), 0.1 mg of BSA (bovine serum albumin)/ml, 5 mM Mg^2+, 1 μM motapizone (PDE3 Inhibitor), 10 nM PDE2 inhibitor 2-(3,4-dimethoxybenzyl)-7-[(1R,2R)-2-hydroxy-1-(2-phenylethyl)propyl]-5-methylimidazo[5,1-f][1,2,4]triazin-4(3H)-one, 0.5 μM cGMP (cyclic guanosine monophosphate) (including about 50,000 cpm of [3H]cGMP as a tracer) (substrate), 1 μl of the respective compound dilution in dimethylsulfoxide (DMSO) and sufficient PDE5-containing platelet lysat (10,000×g supernatant, see above) to ensure that 10-20% of the cGMP was converted under the said experimental conditions. […] After a preincubation of 5 min at 37° C., the reaction was commenced by adding the substrate (cGMP) and the assay was incubated for a further 15 min. The reaction was terminated by adding SPA beads (50 μl). In agreement with the manufacturer's instructions, the SPA beads had previously been resuspended in water, but were then diluted 1:3 (v/v) in water. This diluted solution also contained 3 mM 8-methoxymethyl-3-isobutyl-1-methylxanthine (IBMX) to ensure a complete block of PDE activity. Once the beads were sedimented (>30 min), the MTP's were analyzed in commercially available luminescence detection devices. The corresponding IC50 values of the compounds for inhibition of PDE activity were determined from the concentration-effect curves by means of non-linear regression.
as §1

T1 sequence (Q07343 whole entry): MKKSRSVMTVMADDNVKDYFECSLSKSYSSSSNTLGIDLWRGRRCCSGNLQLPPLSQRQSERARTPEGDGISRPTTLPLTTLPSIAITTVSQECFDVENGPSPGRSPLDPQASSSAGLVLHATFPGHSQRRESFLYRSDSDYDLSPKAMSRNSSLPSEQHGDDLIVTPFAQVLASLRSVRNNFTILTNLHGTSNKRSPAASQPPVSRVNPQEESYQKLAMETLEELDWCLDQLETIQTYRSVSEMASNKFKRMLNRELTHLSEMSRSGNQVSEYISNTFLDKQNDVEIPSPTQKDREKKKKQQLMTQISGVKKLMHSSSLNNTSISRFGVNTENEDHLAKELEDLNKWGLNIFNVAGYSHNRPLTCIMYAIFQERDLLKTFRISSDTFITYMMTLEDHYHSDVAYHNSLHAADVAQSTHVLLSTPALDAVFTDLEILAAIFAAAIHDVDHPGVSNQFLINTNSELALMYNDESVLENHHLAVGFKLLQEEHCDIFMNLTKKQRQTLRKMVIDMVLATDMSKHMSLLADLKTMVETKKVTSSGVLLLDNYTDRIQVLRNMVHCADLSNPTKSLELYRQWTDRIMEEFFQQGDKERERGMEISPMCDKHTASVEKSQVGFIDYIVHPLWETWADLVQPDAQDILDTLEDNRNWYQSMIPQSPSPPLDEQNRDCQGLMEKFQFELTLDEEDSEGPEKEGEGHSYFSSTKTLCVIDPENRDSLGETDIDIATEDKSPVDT

Consider `COc1ccc(C2=NN(C3CCN(C(=O)CNC(=O)c4c[nH]c5c(-c6c(OCC7CC7)ccc7c6OCO7)ncnc45)CC3)C(=O)[C@@H]3CCCC[C@H]23)cc1OC` [Example 59, 4-[5-(cyclopropylmethoxy)-1,3-benzodioxol-4-yl]-N-(2-{4-[(4aS,8aR)-4-(3,4-dimethoxyphenyl)-1-oxo-4a,5,6,7,8,8a-hexahydrophthalazin-2(1H)-yl]piperidin-1-yl}-2-oxoethyl)-5H-pyrrolo[3,2-d]pyrimidine-7-carboxamide], for which the IC50 is below 1 nM at PDE4B1 and 1 to 10 nM on human PDE5.

For the compound `COc1ccc(C2=NN(C3CCN(C(=O)[C@@H](CCC(=O)OCc4ccccc4)NC(=O)c4c[nH]c5c(-c6c(OCC7CC7)ccc7c6OCO7)ncnc45)CC3)C(=O)[C@@H]3CCCC[C@H]23)cc1OC` [Example 100, Benzyl (4R)-4-[({4-[5-(cyclopropylmethoxy)-1,3-benzodioxol-4-yl]-5H-pyrrolo[3,2-d]pyrimidin-7-yl}carbonyl)amino]-5-{4-[(4aS,8aR)-4-(3,4-dimethoxyphenyl)-1-oxo-4a,5,6,7,8,8a-hexahydrophthalazin-2(1H)-yl]piperidin-1-yl}-5-oxopentanoate], the IC50 at PDE4B1 and at human PDE5 was 1 to 10 nM throughout.

Take `COc1ccc(C2=NN(C3CCN(C(=O)[C@@H](CCC(=O)N4CCCC4)NC(=O)c4c[nH]c5c(-c6c(OCC7CC7)ccc7c6OCO7)ncnc45)CC3)C(=O)[C@@H]3CCCC[C@H]23)cc1OC` [Example 105, 4-[5-(cyclopropylmethoxy)-1,3-benzodioxol-4-yl]-N-[(2R)-1-{4-[(4aS,8aR)-4-(3,4-dimethoxyphenyl)-1-oxo-4a,5,6,7,8,8a-hexahydrophthalazin-2(1H)-yl]piperidin-1-yl}-1,5-dioxo-5-(pyrrolidin-1-yl)pentan-2-yl]-5H-pyrrolo[3,2-d]pyrimidine-7-carboxamide]: the IC50 at PDE4B1 and at human PDE5 was 1 to 10 nM throughout.

Consider `COc1ccc(C2=NN(C3CCN(C(=O)[C@@H](Cc4cccc(C)c4)NC(=O)c4c(C)[nH]c5c(-c6c(OCC7CC7)ccc7c6OCO7)ncnc45)CC3)C(=O)[C@@H]3CCCC[C@H]23)cc1OC` [Example 17, 4-[5-(cyclopropylmethoxy)-1,3-benzodioxol-4-yl]-N-[(2R)-1-{4-[(4aS,8aR)-4-(3,4-dimethoxyphenyl)-1-oxo-4a,5,6,7,8,8a-hexahydrophthalazin-2(1H)-yl]piperidin-1-yl}-3-(3-methylphenyl)-1-oxopropan-2-yl]-6-methyl-5H-pyrrolo[3,2-d]pyrimidine-7-carboxamide], for which the IC50 at PDE4B1 and on human PDE5 was below 1 nM each time.

With `COc1cc(OCC2CC2)c(-c2ncnc3c(C(=O)N[C@H](Cc4ccccc4)C(=O)N4CCC(N5N=C(c6ccc(OC)c(OC)c6)[C@H]6CCCC[C@H]6C5=O)CC4)c(C)[nH]c23)cc1F` [Example 22, 4-[2-(cyclopropylmethoxy)-5-fluoro-4-methoxyphenyl]-N-[(2R)-1-{4-[(4aS,8aR)-4-(3,4-dimethoxyphenyl)-1-oxo-4a,5,6,7,8,8a-hexahydrophthalazin-2(1H)-yl]piperidin-1-yl}-1-oxo-3-phenylpropan-2-yl]-6-methyl-5H-pyrrolo[3,2-d]pyrimidine-7-carboxamide], the IC50 on PDE4B1 and on human PDE5 was 1 to 10 nM in each case.

Consider `COc1ccc(C2=NN(C3CCN(C(=O)[C@@H](C)NC(=O)c4c[nH]c5c(-c6c(OCC7CC7)ccc7c6OCO7)ncnc45)CC3)C(=O)C(C)(C)C2)cc1OC` [Example 111, 4-[5-(cyclopropylmethoxy)-1,3-benzodioxol-4-yl]-N-[(2R)-1-{4-[3-(3,4-dimethoxyphenyl)-5,5-dimethyl-6-oxo-5,6-dihydropyridazin-1(4H)-yl]piperidin-1-yl}-1-oxopropan-2-yl]-5H-pyrrolo[3,2-d]pyrimidine-7-carboxamide], for which the IC50 at PDE4B1 and at human PDE5 was 1 to 10 nM throughout.

For `COc1cc(OCC2CC2)c(-c2ncnc3c(C(=O)N[C@H](Cc4ccc(C(C)(C)C)cc4)C(=O)N4CCC(N5N=C(c6ccc(OC)c(OC)c6)[C@H]6CCCC[C@H]6C5=O)CC4)c(C)[nH]c23)cc1F` [Example 5, N-[(2R)-3-(4-tert-butylphenyl)-1-{4-[(4aS,8aR)-4-(3,4-dimethoxyphenyl)-1-oxo-4a,5,6,7,8,8a-hexahydrophthalazin-2(1H)-yl]piperidin-1-yl}-1-oxopropan-2-yl]-4-[2-(cyclopropylmethoxy)-5-fluoro-4-methoxyphenyl]-6-methyl-5H-pyrrolo[3,2-d]pyrimidine-7-carboxamide], the IC50 on PDE4B1 and on human PDE5 was 1 to 10 nM in each case.

On to `CCOc1ccc(C[C@@H](NC(=O)c2c(C)[nH]c3c(-c4c(OCC5CC5)ccc5c4OCO5)ncnc23)C(=O)N2CCC(N3N=C(c4ccc(OC)c(OC)c4)[C@H]4CCCC[C@H]4C3=O)CC2)cc1` [Example 10, 4-[5-(cyclopropylmethoxy)-1,3-benzodioxol-4-yl]-N-[(2R)-1-{4-[(4aS,8aR)-4-(3,4-dimethoxyphenyl)-1-oxo-4a,5,6,7,8,8a-hexahydrophthalazin-2(1H)-yl]piperidin-1-yl}-3-(4-ethoxyphenyl)-1-oxopropan-2-yl]-6-methyl-5H-pyrrolo[3,2-d]pyrimidine-7-carboxamide], for which the IC50 on PDE4B1 and at human PDE5 was below 1 nM in each case.
